Here are results for nine compounds from ChEMBL document CHEMBL1146209, “In-silico fragment-based identification of novel angiogenesis inhibitors” (Bioorg Med Chem Lett, 2007).

For the assay, the system named is HUVEC. Description: Cytotoxicity against HUVEC after 24 hrs by MTT assay. The assay is classed as cell-based. The conditions noted are these: Homo sapiens.
In the case of `Clc1ccc(Nc2ccnc3cc(Cl)ccc23)cc1`, half-maximal inhibition (IC50) was put at 88 µM. This lies in the double-digit micromolar range.
To `COc1ccc(CC(N)C(=O)N(C)C2C(CO)OC(n3cnc4c(N(C)C)ncnc43)C2O)cc1` (centres undefined) belongs 100 µM; to `Oc1ccc(Nc2ccnc3cc(Cl)ccc23)cc1`, 82 µM.
The figure for `O=C(O)c1ccc(Nc2ccnc3cc(Cl)ccc23)cc1O` is 90 µM; for `O=c1c(-c2ccc(O)cc2)coc2cc(O)cc(O)c12` [GENISTEIN] it is 88 µM.
The figure for `O=S(=O)(Nc1nccs1)c1ccc(Nc2ccnc3cc(Cl)ccc23)cc1` is 74 µM; for `O=C1c2ccccc2C(=O)c2c1oc1c2ccc2ccccc21` it is 63 µM; for `O=C1c2ccccc2C(=O)C(CCCc2ccc(Oc3ccccc3)cc2)C1O` (centres undefined) it is 75 µM.
Turning to `Clc1ccc2c(NC3CCC(NC4CCCCC4)CC3)ccnc2c1` (centres undefined), the IC50 was determined as 13 µM. This IC50 is about 5.8-fold lower than that of the compound before.

By IC50 is commonly meant the concentration that gives 50% inhibition.
